According to US9499538B2, “Estrogen receptor modulators and uses thereof” (Seragon Pharmaceuticals, Inc., priority 2012, dated 2016):

Key:
MCF-7 cells = test: Breast Cancer Cell Viability Assays (MCF-7, CellTiter-Glo); type: cell-based; conditions: 5 days' compound exposure; for IC50: Homo sapiens, MCF7, 120 h
Method in brief: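 Percent viability, background-subtracted against untreated wells, was taken from CellTiter-Glo luminescence after 5 days' exposure of MCF-7 cells. Compounds were tested at eleven semilog concentrations, final 0.3–0.000003 μM, in RPMI containing 10% FBS.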

ER-α in MCF-7 cells = target: T1, ER-α in MCF-7 cells (Homo sapiens, UniProt P03372); test: Breast Cancer Cell ER-α In Cell Western Assay (SP1); type: cell-based; conditions: 4 or 24 hr post compound addition; for Emax: MCF7, SP1 antibody, read-out: ER-α In Cell Western Assay (SP1) Max Response; for DC50: SP1 antibody, read-out: ER-α In Cell Western Assay (SP1) IC50
T1 construct: endogenous in cells; host or cells: MCF-7
T1 sequence (P03372 1-595): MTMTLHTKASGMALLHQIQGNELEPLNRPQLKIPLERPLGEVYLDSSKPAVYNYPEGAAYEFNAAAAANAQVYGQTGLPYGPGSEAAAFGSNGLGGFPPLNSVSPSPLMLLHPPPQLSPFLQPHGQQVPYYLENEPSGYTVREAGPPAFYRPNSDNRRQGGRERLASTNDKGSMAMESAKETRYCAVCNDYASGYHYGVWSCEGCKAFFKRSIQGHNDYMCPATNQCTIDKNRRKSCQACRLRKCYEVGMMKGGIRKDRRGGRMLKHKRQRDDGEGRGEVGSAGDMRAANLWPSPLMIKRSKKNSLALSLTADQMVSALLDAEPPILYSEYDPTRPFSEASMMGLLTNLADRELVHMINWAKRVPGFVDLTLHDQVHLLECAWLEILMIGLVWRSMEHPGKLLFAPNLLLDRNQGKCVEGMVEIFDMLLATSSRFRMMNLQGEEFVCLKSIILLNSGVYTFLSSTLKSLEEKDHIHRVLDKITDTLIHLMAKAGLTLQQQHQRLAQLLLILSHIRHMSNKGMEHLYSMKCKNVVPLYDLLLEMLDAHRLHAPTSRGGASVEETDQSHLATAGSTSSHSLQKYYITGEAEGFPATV
Method in brief: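 ER-α levels quantified by in-cell western: SP1 signal normalised to DRAQ5 DNA stain, relative to untreated cells (% ER). Compounds at 0.3–0.000003 μM final, 11-point semilog series, 4 or 24 h exposure of MCF-7 cells grown in charcoal-stripped serum.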

| IC50 (MCF-7 cells) [µM] | Emax (ER-α in MCF-7 cells) [%] | DC50 (ER-α in MCF-7 cells) [µM] | Structure (SMILES) | MCF7 Viability Assay Max Response (MCF-7 cells) |
| --- | --- | --- | --- | --- |
| ≤ 0.1 | ≥ 40 | ≤ 0.1 | CS(=O)(=O)c1cc(Cl)ccc1/C(=C(\c1ccc(/C=C/C(=O)O)cc1)c1ccc2scnc2c1)C1CCC1 [Example 281, (E)-3-(4-((E)-1-(Benzo[d]thiazol-5-yl)-2-(4-chloro-2-(methylsulfonyl)phenyl)-2-cyclobutylvinyl)phenyl)acrylic acid] | ++ (++ = a single % value ≧ 40%) |
| ≤ 0.1 | ≥ 40 | ≤ 0.1 | O=C(O)/C=C/c1cnc(/C(=C(\c2ccccc2)C2CCC2)c2ccc3[nH]nc(F)c3c2)cn1 [Example 159, (E)-3-(5-((Z)-2-Cyclobutyl-1-(3-fluoro-1H-indazol-5-yl)-2-phenylvinyl)pyrazin-2-yl)acrylic acid] | ++ (++ = a single % value ≧ 40%) |
| ≤ 0.1 | ≥ 40 | ≤ 0.1 | O=C(O)/C=C/c1ccc(/C(=C(\c2ccncc2Cl)C2CCC2)c2coc3c(O)cccc23)cc1 [Example 213, (E)-3-(4-((E)-2-(3-Chloropyridin-4-yl)-2-cyclobutyl-1-(7-hydroxybenzofuran-3-yl)vinyl)phenyl)acrylic acid] | ++ (++ = a single % value ≧ 40%) |
| ≤ 0.1 | ≥ 40 | ≤ 0.1 | O=C(O)/C=C/c1ccc(/C(=C(\c2ccc(F)cc2Cl)C2CCC2)c2ccc3[nH]nnc3c2)cc1 [Example 79, (E)-3-(4-((E)-1-(1H-Benzo[d][1,2,3]triazol-5-yl)-2-(2-chloro-4-fluoro-phenyl)-2-cyclobutylvinyl)phenyl)acrylic acid] | ++ (++ = a single % value ≧ 40%) |
| ≤ 0.1 | ≥ 40 | ≤ 0.1 | Cc1ccccc1/C(=C(\c1ccc(/C=C/C(=O)O)cc1)c1ccc2[nH]nc(F)c2c1)C1CCC1 [Example 125, (E)-3-(4-((E)-2-Cyclobutyl-1-(3-fluoro-1H-indazol-5-yl)-2-(o-tolyl)vinyl)phenyl)acrylic acid] | ++ (++ = a single % value ≧ 40%) |
| ≤ 0.1 | ≥ 40 | ≤ 0.1 | N#Cc1cc(C(F)(F)F)ccc1/C(=C(\c1ccc(/C=C/C(=O)O)cc1)c1ccc2[nH]nc(F)c2c1)C1CCC1 [Example 243, (E)-3-(4-((E)-2-(2-Cyano-4-(trifluoromethyl)phenyl)-2-cyclobutyl-1-(3-fluoro-1H-indazol-5-yl)vinyl)phenyl)acrylic acid] | ++ (++ = a single % value ≧ 40%) |
| ≤ 0.1 | ≥ 40 | ≤ 0.1 | COc1cc(C)c(/C(=C(\c2ccc(/C=C/C(=O)O)cc2)c2cccc3[nH]ncc23)C2CCC2)cn1 [Example 127, (E)-3-(4-((E)-2-Cyclobutyl-1-(1H-indazol-4-yl)-2-(6-methoxy-4-methylpyridin-3-yl)vinyl)phenyl)acrylic acid] | ++ (++ = a single % value ≧ 40%) |
| ≤ 0.1 | ≥ 40 | ≤ 0.1 | N#Cc1c(/C(=C(/c2ccccc2)C2CC2)c2ccc(/C=C/C(=O)O)cc2)ccc2[nH]nc(F)c12 [Example 14, (E)-3-(4-((E)-1-(4-Cyano-3-fluoro-1H-indazol-5-yl)-2-cyclopropyl-2-phenylvinyl)phenyl)acrylic acid] | ++ (++ = a single % value ≧ 40%) |
| ≤ 0.1 | ≥ 40 | ≤ 0.1 | O=C(O)/C=C/c1ccc(/C(=C(\c2ccccc2)C2CCC2)c2ccc3[nH]nnc3c2)cc1 [Example 17, (E)-3-(4-((E)-1-(1H-Benzo[d][1,2,3]triazol-5-yl)-2-cyclobutyl-2-phenylvinyl)phenyl)acrylic acid] | ++ (++ = a single % value ≧ 40%) |
| ≤ 0.1 | ≥ 40 | ≤ 0.1 | Cc1cnccc1/C(=C(\c1ccc(/C=C/C(=O)O)cc1)c1ccc2scnc2c1)C1CCC1 [Example 83, (E)-3-(4-((E)-1-(Benzo[d]thiazol-5-yl)-2-cyclobutyl-2-(3-methylpyridin-4-yl)vinyl)phenyl)acrylic acid] | ++ (++ = a single % value ≧ 40%) |
| ≤ 0.1 | ≥ 40 | ≤ 0.1 | O=C(O)/C=C/c1ccc(/C(=C(\c2ccccc2)C2CCC2)c2ccc3[nH]ncc3c2F)cc1 [Example 25, (E)-3-(4-((E)-2-Cyclobutyl-1-(4-fluoro-1H-indazol-5-yl)-2-phenylvinyl)phenyl)acrylic acid] | ++ (++ = a single % value ≧ 40%) |
| ≤ 0.1 | ≥ 40 | ≤ 0.1 | COc1cccc2c(/C(=C(/c3ccc(F)cc3Cl)C3CCC3)c3ccc(/C=C/C(=O)O)cc3)coc12 [Example 76, (E)-3-(4-((E)-2-(2-Chloro-4-fluorophenyl)-2-cyclobutyl-1-(7-methoxybenzofuran-3-yl)vinyl)phenyl)acrylic acid] | ++ (++ = a single % value ≧ 40%) |
| ≤ 0.1 | ≥ 40 | ≤ 0.1 | N#Cc1c(/C(=C(/c2ccccc2)C2CC2)c2ccc(/C=C/C(=O)O)cc2)ccc2[nH]ncc12 [Example 13, (E)-3-(4-((E)-1-(4-Cyano-1H-indazol-5-yl)-2-cyclopropyl-2-phenylvinyl)phenyl)acrylic acid] | ++ (++ = a single % value ≧ 40%) |
| ≤ 0.1 | ≥ 40 | ≤ 0.1 | O=C(O)/C=C/c1ccc(/C(=C(\c2ccncc2C(F)(F)F)C2CCC2)c2ccc3[nH]nc(F)c3c2)cc1 [Example 47, (E)-3-(4-((E)-2-Cyclobutyl-1-(3-fluoro-1H-indazol-5-yl)-2-(3-(trifluoromethyl)pyridin-4-yl)vinyl)phenyl)acrylic acid] | ++ (++ = a single % value ≧ 40%) |
| ≤ 0.1 | ≥ 40 | ≤ 0.1 | COc1ccc(/C(=C(\c2ccc(/C=C/C(=O)O)cc2)c2ccc3[nH]nc(F)c3c2)C2CCC2)c(C)c1 [Example 65, (E)-3-(4-((E)-2-Cyclobutyl-1-(3-fluoro-1H-indazol-5-yl)-2-(4-methoxy-2-methylphenyl)vinyl)phenyl)acrylic acid] | ++ (++ = a single % value ≧ 40%) |
| ≤ 0.1 | ≥ 40 | ≤ 0.1 | Cc1cc(C#N)ccc1/C(=C(\c1ccc(/C=C/C(=O)O)cc1)c1ccc2[nH]nc(F)c2c1)C1CC1 [Example 118, (E)-3-(4-((E)-2-(4-Cyano-2-methylphenyl)-2-cyclopropyl-1-(3-fluoro-1H-indazol-5-yl)vinyl)phenyl)acrylic acid] | ++ (++ = a single % value ≧ 40%) |
| ≤ 0.1 | ≥ 40 | ≤ 0.1 | O=C(O)/C=C/c1ccc(/C(=C(\c2cnc(C(F)(F)F)cc2C(F)(F)F)C2CCC2)c2ccc3[nH]nc(F)c3c2)cc1 [Example 258, (E)-3-(4-((E)-2-(4,6-bis(Trifluoromethyl)pyridin-3-yl)-2-cyclobutyl-1-(3-fluoro-1H-indazol-5-yl)vinyl)phenyl)acrylic acid] | ++ (++ = a single % value ≧ 40%) |
| ≤ 0.1 | ≥ 40 | ≤ 0.1 | N#Cc1ccc(/C(=C(\c2ccc(/C=C/C(=O)O)cc2)c2ccc3[nH]nc(F)c3c2)C2CCC2)c(F)c1 [Example 48, (E)-3-(4-((E)-2-(4-Cyano-2-fluorophenyl)-2-cyclobutyl-1-(3-fluoro-1H-indazol-5-yl)vinyl)phenyl)acrylic acid] | ++ (++ = a single % value ≧ 40%) |
| ≤ 0.1 | ≥ 40 | ≤ 0.1 | O=C(O)/C=C/c1ccc(/C(=C(\c2ncccc2C(F)(F)F)C2CCC2)c2ccc3[nH]nc(F)c3c2)cn1 [Example 260, (E)-3-(5-((Z)-2-Cyclobutyl-1-(3-fluoro-1H-indazol-5-yl)-2-(3-(trifluoromethyl)pyridin-2-yl)vinyl)pyridin-2-yl)acrylic acid] | ++ (++ = a single % value ≧ 40%) |
| ≤ 0.1 | ≥ 40 | ≤ 0.1 | O=C(O)/C=C/c1ccc(/C(=C(\c2cncc(F)c2)C2CCC2)c2ccc3[nH]nc(F)c3c2)cc1 [Example 131, (E)-3-(4-((E)-2-Cyclobutyl-1-(3-fluoro-1H-indazol-5-yl)-2-(5-fluoropyridin-3-yl)vinyl)phenyl)acrylic acid] | ++ (++ = a single % value ≧ 40%) |
